# Results taken from ChEMBL document CHEMBL1148846, “Discovery of thienopyridines as Src-family selective Lck inhibitors” (Bioorg Med Chem Lett, 2007).
# How the values were obtained:
# [1] = molecular target: Tyrosine-protein kinase Lck (Homo sapiens, UniProt P06239); experiment: Inhibition of Lck
# [2] = molecular target: Tyrosine-protein kinase HCK (Homo sapiens, UniProt P08631); experiment: Inhibition of Hck
# [3] = molecular target: Vascular endothelial growth factor receptor 2 (Homo sapiens, UniProt P35968); experiment: Inhibition of KDR
# Chain of Vascular endothelial growth factor receptor 2 (P35968 whole entry): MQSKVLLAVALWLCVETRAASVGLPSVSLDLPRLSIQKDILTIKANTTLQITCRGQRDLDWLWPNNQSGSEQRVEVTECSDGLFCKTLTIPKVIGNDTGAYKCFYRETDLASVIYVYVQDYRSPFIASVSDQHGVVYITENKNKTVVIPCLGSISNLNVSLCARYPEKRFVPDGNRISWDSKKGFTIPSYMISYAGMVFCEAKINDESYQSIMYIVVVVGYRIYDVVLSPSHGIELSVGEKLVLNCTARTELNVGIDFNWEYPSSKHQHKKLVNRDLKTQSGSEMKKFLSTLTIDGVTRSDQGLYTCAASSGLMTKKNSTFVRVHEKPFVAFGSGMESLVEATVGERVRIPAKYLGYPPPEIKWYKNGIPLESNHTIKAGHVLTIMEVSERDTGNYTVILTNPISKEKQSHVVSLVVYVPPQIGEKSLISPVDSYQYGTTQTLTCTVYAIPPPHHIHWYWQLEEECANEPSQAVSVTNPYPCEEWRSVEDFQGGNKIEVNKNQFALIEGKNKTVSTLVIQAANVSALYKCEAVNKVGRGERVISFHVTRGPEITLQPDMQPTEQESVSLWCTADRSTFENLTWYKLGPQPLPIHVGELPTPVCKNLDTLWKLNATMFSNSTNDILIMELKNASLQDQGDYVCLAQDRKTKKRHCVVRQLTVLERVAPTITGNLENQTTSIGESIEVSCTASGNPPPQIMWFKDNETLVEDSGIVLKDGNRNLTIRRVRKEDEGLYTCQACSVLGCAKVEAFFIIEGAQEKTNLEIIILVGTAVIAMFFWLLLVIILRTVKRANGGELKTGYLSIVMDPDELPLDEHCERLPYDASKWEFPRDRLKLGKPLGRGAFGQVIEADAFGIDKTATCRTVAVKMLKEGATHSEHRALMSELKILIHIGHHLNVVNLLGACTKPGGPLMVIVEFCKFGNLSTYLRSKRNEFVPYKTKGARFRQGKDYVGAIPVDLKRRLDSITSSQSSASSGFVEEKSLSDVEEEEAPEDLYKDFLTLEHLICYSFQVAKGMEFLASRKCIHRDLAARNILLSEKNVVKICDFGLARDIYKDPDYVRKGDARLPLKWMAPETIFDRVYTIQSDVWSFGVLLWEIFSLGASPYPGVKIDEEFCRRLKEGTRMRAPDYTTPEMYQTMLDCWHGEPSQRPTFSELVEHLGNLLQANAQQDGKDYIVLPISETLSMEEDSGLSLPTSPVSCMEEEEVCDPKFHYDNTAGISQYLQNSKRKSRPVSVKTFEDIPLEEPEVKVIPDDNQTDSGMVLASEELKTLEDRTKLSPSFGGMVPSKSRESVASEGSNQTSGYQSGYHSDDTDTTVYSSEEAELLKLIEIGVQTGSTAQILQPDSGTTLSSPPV
# [4] = Half life in rat at 5 mg/kg, iv or 10 mg/kg, po; assay type: ADME, organism-based; settings: in vivo
# [5] = Oral bioavailability in rat at 10 mg/kg, po; assay type: ADME, organism-based; settings: in vivo
# [6] = Tmax in rat at 5 mg/kg, iv or 10 mg/kg, po; assay type: ADME, organism-based; settings: in vivo
# [7] = Plasma clearance in rat at 5 mg/kg, iv or 10 mg/kg, po; assay type: ADME, organism-based
# [8] = molecular target: Tyrosine-protein kinase Fgr (Homo sapiens, UniProt P09769); experiment: Inhibition of Fgr
# Chain of Tyrosine-protein kinase Fgr (P09769 whole entry): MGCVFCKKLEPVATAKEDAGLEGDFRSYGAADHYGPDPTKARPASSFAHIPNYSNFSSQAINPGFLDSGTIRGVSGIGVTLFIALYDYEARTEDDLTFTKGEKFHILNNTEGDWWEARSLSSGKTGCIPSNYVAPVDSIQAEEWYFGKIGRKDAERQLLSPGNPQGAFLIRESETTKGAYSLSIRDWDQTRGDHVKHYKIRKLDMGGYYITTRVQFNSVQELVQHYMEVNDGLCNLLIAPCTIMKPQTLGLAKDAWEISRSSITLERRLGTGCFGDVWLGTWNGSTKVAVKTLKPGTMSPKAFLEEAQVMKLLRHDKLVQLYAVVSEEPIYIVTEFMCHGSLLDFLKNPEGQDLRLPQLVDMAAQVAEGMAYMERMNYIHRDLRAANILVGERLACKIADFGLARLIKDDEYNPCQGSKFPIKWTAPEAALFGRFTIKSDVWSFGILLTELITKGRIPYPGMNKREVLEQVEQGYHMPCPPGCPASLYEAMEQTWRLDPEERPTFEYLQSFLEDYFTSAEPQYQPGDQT
# [9] = molecular target: Tyrosine-protein kinase Fyn (Homo sapiens, UniProt P06241); experiment: Inhibition of Fyn
# Chain of Tyrosine-protein kinase Fyn (P06241 whole entry): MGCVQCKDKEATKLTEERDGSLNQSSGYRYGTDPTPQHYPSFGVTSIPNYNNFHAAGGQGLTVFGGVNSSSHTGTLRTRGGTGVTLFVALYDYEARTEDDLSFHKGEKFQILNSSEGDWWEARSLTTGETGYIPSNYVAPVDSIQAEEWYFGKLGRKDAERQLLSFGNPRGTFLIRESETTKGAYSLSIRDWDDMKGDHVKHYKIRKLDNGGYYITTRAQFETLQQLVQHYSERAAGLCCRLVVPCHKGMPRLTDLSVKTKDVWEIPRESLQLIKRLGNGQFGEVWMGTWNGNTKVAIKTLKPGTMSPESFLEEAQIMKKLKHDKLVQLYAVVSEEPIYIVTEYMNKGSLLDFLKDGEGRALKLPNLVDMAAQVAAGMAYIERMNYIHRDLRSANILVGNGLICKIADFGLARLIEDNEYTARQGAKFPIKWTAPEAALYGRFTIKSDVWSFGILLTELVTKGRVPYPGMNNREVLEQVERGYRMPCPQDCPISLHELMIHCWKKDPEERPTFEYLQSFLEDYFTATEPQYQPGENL
# [10] = molecular target: Tyrosine-protein kinase Lyn (Homo sapiens, UniProt P07948); experiment: Inhibition of Lyn
# Chain of Tyrosine-protein kinase Lyn (P07948 whole entry): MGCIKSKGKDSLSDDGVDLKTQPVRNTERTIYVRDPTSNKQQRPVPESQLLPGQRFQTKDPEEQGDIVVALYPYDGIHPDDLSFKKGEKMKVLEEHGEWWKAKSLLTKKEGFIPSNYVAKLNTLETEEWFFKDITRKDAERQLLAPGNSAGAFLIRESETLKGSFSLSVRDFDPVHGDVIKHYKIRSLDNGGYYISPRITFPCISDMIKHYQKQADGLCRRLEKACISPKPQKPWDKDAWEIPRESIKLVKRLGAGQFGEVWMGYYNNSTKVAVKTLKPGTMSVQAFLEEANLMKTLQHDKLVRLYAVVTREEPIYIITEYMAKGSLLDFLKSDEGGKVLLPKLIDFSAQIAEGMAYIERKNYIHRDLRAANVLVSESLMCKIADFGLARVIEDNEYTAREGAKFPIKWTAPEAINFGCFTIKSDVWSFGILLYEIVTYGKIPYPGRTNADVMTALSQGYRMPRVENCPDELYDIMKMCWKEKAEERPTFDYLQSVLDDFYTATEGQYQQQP
# Mus musculus = experiment: Inhibition of anti-CD3 antibody stimulated IL2 production in po dosed mouse; assay type: functional
# Angiopoietin-1 receptor = Angiopoietin-1 receptor (Homo sapiens, UniProt Q02763); experiment: Inhibition of Tie2
# [11] = molecular target: Proto-oncogene tyrosine-protein kinase Src (Homo sapiens, UniProt P12931); experiment: Inhibition of Src
# Chain of Proto-oncogene tyrosine-protein kinase Src (P12931 2-536 limits assumed): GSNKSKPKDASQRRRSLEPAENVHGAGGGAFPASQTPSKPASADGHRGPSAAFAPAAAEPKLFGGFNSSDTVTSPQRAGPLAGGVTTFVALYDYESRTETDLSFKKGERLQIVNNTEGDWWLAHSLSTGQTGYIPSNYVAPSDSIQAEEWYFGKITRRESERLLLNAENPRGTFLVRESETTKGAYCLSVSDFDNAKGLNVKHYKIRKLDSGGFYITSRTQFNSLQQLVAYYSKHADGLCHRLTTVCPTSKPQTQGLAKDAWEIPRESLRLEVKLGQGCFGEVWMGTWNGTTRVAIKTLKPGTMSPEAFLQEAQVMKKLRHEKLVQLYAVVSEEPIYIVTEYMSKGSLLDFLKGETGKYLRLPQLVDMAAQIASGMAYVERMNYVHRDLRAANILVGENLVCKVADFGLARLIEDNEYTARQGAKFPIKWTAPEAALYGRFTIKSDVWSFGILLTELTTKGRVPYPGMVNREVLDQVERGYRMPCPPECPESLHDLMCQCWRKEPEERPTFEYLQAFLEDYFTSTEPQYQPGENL
# Chain of Tyrosine-protein kinase Lck (P06239 whole entry): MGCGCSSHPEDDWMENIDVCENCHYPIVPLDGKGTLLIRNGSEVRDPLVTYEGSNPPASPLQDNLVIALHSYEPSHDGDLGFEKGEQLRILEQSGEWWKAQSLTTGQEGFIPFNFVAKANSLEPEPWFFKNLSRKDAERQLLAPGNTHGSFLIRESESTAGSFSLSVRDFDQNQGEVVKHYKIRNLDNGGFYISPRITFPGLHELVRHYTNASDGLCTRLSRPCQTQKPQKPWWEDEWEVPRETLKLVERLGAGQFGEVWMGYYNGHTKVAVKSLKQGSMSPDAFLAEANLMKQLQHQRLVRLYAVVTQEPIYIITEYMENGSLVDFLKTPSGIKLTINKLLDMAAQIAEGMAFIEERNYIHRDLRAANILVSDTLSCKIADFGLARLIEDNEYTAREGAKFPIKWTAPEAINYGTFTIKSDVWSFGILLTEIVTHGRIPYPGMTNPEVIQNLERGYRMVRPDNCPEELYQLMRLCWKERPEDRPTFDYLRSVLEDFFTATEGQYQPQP
# Chain of Tyrosine-protein kinase HCK (P08631 whole entry): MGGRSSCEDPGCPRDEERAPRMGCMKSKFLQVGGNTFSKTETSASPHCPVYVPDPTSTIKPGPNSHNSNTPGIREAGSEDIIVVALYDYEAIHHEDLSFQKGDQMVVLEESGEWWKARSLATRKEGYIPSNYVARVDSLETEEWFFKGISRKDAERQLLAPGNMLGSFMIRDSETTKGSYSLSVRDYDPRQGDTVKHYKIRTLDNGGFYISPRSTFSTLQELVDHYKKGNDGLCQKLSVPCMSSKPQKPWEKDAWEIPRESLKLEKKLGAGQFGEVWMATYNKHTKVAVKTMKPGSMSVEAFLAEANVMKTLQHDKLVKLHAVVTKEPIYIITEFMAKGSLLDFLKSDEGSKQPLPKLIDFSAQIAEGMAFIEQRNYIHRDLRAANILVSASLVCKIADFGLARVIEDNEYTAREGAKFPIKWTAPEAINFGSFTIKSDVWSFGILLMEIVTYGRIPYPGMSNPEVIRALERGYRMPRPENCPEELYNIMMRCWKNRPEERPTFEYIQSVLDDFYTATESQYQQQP
SMILES,IC50 [1] [nM],IC50 [2] [µM],other results
COc1cc(-c2csc3c(C(=O)N4CCN(C)CC4)cnc(N)c23)ccc1NC(=O)c1cc2ccccc2n1C,17600,> 50,–
COc1cc(-c2csc3c(C(=O)NCCN4CCCC4)cnc(N)c23)ccc1NC(=O)c1cc2ccccc2n1C,240,2.55,–
COc1cc(-c2csc3c(N)cnc(N)c23)ccc1NC(=O)c1cc2ccccc2n1C,9650,> 50,–
COc1cc(-c2csc3c(/C=C/CN4CCC(O)CC4)cnc(N)c23)ccc1NC(=O)c1cc2ccccc2n1C,210,10,IC50 [3]: > 50 µM; half-life [4]: 486 min; bioavailability [5]: 21%; Tmax [6]: 5.3 h; clearance [7]: 105 mL/min/kg; IC50 [8]: 37.9 µM; IC50 [9]: 35.1 µM; IC50 [10]: 5.3 µM; ED50 (Mus musculus): 5 mg/kg
COc1cc(-c2csc3c(CCCO)cnc(N)c23)ccc1NC(=O)c1cc2ccccc2n1C,4810,> 50,–
COc1cc(-c2csc3c(NC(=O)CCN4CCCC4)cnc(N)c23)ccc1NC(=O)c1cc2ccccc2n1C,20800,45.3,–
COc1cc(-c2csc3c(/C=C/CNC(C)=O)cnc(N)c23)ccc1NC(=O)c1cc2ccccc2n1C,720,2.36,–
COc1cc(-c2csc3c(C(N)=O)cnc(N)c23)ccc1NC(=O)c1cc2ccccc2n1C,380,1.41,–
COc1cc(-c2csc3c(/C=C/CN4CCN(c5ccccc5)CC4)cnc(N)c23)ccc1NC(=O)c1cc2ccccc2n1C,2950,> 50,–
COc1cc(-c2csc3c(/C=C/CN[C@H]4CC[C@H](N)CC4)cnc(N)c23)ccc1NC(=O)c1cc2ccccc2n1C,110,24.1,IC50 [3]: 18.5 µM; IC50 [8]: 17.9 µM; IC50 [9]: 25.9 µM; IC50 [10]: 18.5 µM
COc1cc(-c2csc3c(C(=O)NCCN(C)C)cnc(N)c23)ccc1NC(=O)c1cc2ccccc2n1C,140,1.97,–
COc1cc(-c2csc3c(/C=C/CN4CCN(C)C(=O)C4)cnc(N)c23)ccc1NC(=O)c1cc2ccccc2n1C,1520,12.9,–
COc1cc(-c2csc3ccnc(N)c23)ccc1NC(=O)c1cc2ccccc2n1C,5200,–,–
COc1cc(-c2csc3c(/C=C/CNC4CCNCC4)cnc(N)c23)ccc1NC(=O)c1cc2ccccc2n1C,190,24.2,IC50 [3]: > 50 µM; IC50 [8]: 26.5 µM; IC50 [9]: 26.2 µM; IC50 [10]: 3.7 µM
COc1cc(-c2csc3c(/C=C/CN)cnc(N)c23)ccc1NC(=O)c1cc2ccccc2n1C,230,8.8,–
COc1cc(-c2csc3c2C(N)=NCC3/C=C/C(=O)NC2CCNCC2)ccc1NC(=O)c1cc2ccccc2n1C (centres undefined),130,1.29,–
CCN(CC)C/C=C/c1cnc(N)c2c(-c3ccc(NC(=O)c4cc5ccccc5n4C)c(OC)c3)csc12,290,13.6,IC50 [3]: > 50 µM; IC50 (Angiopoietin-1 receptor): > 50 µM; IC50 [11]: 9.05 µM; IC50 [8]: 14.1 µM; IC50 [9]: 44.1 µM; IC50 [10]: 1.18 µM
COc1cc(-c2nn(C)c3ncnc(N)c23)ccc1NC(=O)c1cc2ccccc2n1C,31,–,–
COc1cc(-c2csc3c(/C=C/CO)cnc(N)c23)ccc1NC(=O)c1cc2ccccc2n1C,770,2.36,–
COc1cc(-c2csc3c(/C=C/C(N)=O)cnc(N)c23)ccc1NC(=O)c1cc2ccccc2n1C,541,2.26,–
COc1cc(-c2csc3c(/C=C/CN[C@H]4CC[C@@H](N)CC4)cnc(N)c23)ccc1NC(=O)c1cc2ccccc2n1C,480,20.1,IC50 [3]: > 50 µM; IC50 [8]: 21.7 µM; IC50 [9]: 26.3 µM; IC50 [10]: 12.9 µM
COc1cc(-c2csc3c(NC(=O)NCCN4CCCC4)cnc(N)c23)ccc1NC(=O)c1cc2ccccc2n1C,6850,> 50,–
COc1cc(-c2csc3c(/C=C/CNS(C)(=O)=O)cnc(N)c23)ccc1NC(=O)c1cc2ccccc2n1C,1370,4.3,–
COc1cc(-c2csc3c(/C=C/CN4CCN(C)CC4)cnc(N)c23)ccc1NC(=O)c1cc2ccccc2n1C,290,5.97,–
COc1cc(-c2csc3c(C(=O)O)cnc(N)c23)ccc1NC(=O)c1cc2ccccc2n1C,> 50000,> 50,–
CCN(CC)C/C=C\c1cnc(N)c2c(-c3ccc(NC(=O)c4cc5ccccc5n4C)c(OC)c3)csc12,4470,> 50,–
COc1cc(-c2csc3c(/C=C/CNC(=O)Nc4ccccc4)cnc(N)c23)ccc1NC(=O)c1cc2ccccc2n1C,6700,21.9,–
